The test system of one assay is B. subtilis ATCC 23857. Description: MIC assay (broth micro-dilution). Type of assay: cell-based. Conditions: Table S11; LB broth, 37 °C, 16 h, n = 2. The method, boiled down:
(§1)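 Growth inhibition read visually; MIC taken as lowest inhibitory concentration. LB medium; inocula from overnight cultures diluted 5000-fold, S. aureus 10000-fold. Peptide range 64 to 0.125 µg mL^−1 (2-fold, pre-mix), two independent determinations.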
For orientation: Dilution methods test growth across graded concentrations, often in twofold steps.

In a further assay the test system is Escherichia coli DH5α. As to the kind of experiment: MIC assay (broth micro-dilution). It counts as cell-based. Conditions: Table S11; LB broth, 37 °C, 16 h, n = 2. The method, boiled down:
as §1

Assay [1] has as its system Acinetobacter baumannii ATCC 17978. As to the kind of experiment: microbe, parasite or virus in culture. Type of assay: cell-based. As to conditions: ATCC 17978, 16 h. The method, boiled down:
as §1

Another assay has as its system Enterococcus faecalis 28. Description: microbe, parasite or virus in culture. Type of assay: cell-based. Conditions: 28, 16 h. The method, boiled down: as §1
For assay [2], the system named is Enterococcus faecium 35682. As to the kind of experiment: microbe, parasite or virus in culture. It counts as cell-based. Conditions: Table S11; LB broth, 37 °C, 16 h, n = 2. The method, boiled down: as §1
The subject of assay [3] is Klebsiella pneumoniae NCTC 5056. As to the kind of experiment: microbe, parasite or virus in culture. It counts as cell-based. Conditions: NCTC 5056, 16 h. The method in brief:
as §1

The test system of assay [4] is Pseudomonas aeruginosa ATCC 9027. As to the kind of experiment: microbe, parasite or virus in culture. Type of assay: cell-based. Conditions: ATCC 9027, 16 h. The method, boiled down:
as §1

In assay [5] the test system is Pseudomonas aeruginosa PAO1. As to the kind of experiment: microbe, parasite or virus in culture. Type of assay: cell-based. The method in brief:
as §1

The subject of assay [6] is Salmonella typhimurium LXX. As to the kind of experiment: microbe, parasite or virus in culture. Type of assay: cell-based. As to conditions: murium LXX, 16 h. The method in brief:
as §1

Assay [7] has as its system Staphylococcus aureus ATCC 25923. As to the kind of experiment: microbe, parasite or virus in culture. It counts as cell-based. Conditions: ATCC 25923, 16 h. The method, boiled down:
as §1

Assay [8] concerns Staphylococcus aureus ATCC 6538. As to the kind of experiment: microbe, parasite or virus in culture. It counts as cell-based. Conditions: ATCC 6538, 16 h. The method, boiled down:
as §1

For assay [9], the system named is Staphylococcus aureus Newman. Description: microbe, parasite or virus in culture. Type of assay: cell-based. As to conditions: Newman, 16 h. The method, boiled down: as §1
In assay [10] the test system is Staphylococcus aureus USA300. Description: microbe, parasite or virus in culture. Type of assay: cell-based. As to conditions: for MIC Staphylococcus aureus USA300: Table S11, LB broth, 37 °C, 16 h, n = 2. The method in brief:
as §1

In assay [11] the test system is Streptococcus mutans ATCC 25175. As to the kind of experiment: microbe, parasite or virus in culture. It counts as cell-based. As to conditions: ATCC 25175, 16 h. The method in brief:
as §1

The subject of assay [12] is Streptococcus pyogenes ATCC 19615. As to the kind of experiment: microbe, parasite or virus in culture. Type of assay: cell-based. Conditions: Table S11; LB broth, 37 °C, 16 h, n = 2. The method in brief:
as §1

Assay [13] deals with Vibrio alginolyticus XSBZ14. Description: microbe, parasite or virus in culture. Conditions: 16 h. It counts as cell-based. The method, boiled down: as §1
Assay [14] is described as follows: Isothermal titration calorimetry. It counts as binding, Escherichia coli O55:B5. Conditions: Table S12; ITC, 2 mM LPS into 0.2 mM peptide, in H2O, 20 injections. As for the experimental part: Calorimetric experiments were performed to evaluate the interaction between CL, PE, PG, or LPS and aquicidine L or aquicidine C4. To determine the affinity between aquicidine L or aquicidine C4 and CL, PE, or PG, both 2 mM CL, PE, or PG and 0.2 mM aquicidine L or aquicidine C4 were dissolved in 20 mM HEPES buffer (pH 7.5). To determine the interaction between LPS and aquicidine L or aquicidine C4, 2 mM LPS and 0.2 mM aquicidine L or aquicidine C4 were dissolved in H2O. Sequential injections of CL, PE, PG, or LPS into the calorimetric cell filled with aquicidine L or aquicidine C4 were repeated 20 times with equilibration intervals of 200 s. Data were collected by using a MicroCal PEAQ‐ITC instrument and calculated for the equilibrium dissociation constant (KD), change of enthalpy (ΔH), and change of entropy […].
A general note: Isothermal titration calorimetry measures the heat released or taken up as one component is titrated into another.

Assay [15] has as its system S. aureus USA300. Description: UDP-MurNAc-pentapeptide accumulation assay. Type of assay: cell-based. As to conditions: 8 × MIC, 1 hr, LC-MS. As for the experimental part: To determine the effects of aquicidine L or aquicidine C4 on bacterial cell wall biosynthesis of S. aureus USA300, the accumulation of the precursor UDP‐MurNAc‐pentapeptide was investigated in antibiotic‐treated cell cultures. 50 µL of overnight cultures were transferred to 5 mL of fresh LB broth and cultured to 0.5 of OD600 at 37 °C and 200 rpm. The cultures were treated with 130 µg/mL of chloramphenicol for 15 min at 37 °C and 200 rpm, and 128 µg/mL of aquicidine L or 32 µg/mL aquicidine C4 was added. 8 µg/mL of vancomycin and DMSO were used as positive and negative controls, respectively. After an incubation of 1 hr, the cell pellet from 0.5 mL of the cell cultures was resuspended in 30 µL of ddH2O and then boiled for 15 min. Finally, the supernatant was collected and then detected using an Agilent 1290 Series High‐Performance Liquid Chromatography (HPLC) coupled to a 6546 Series QTOF mass spectrometer equipped with an XBridge C18 column (4.6 × 150 mm, 5 µm). Solvent A = H2O (0.1% v/v formic acid) and solvent B = CH3CN (0.1% v/v formic acid) were used for HPLC analysis with 0.4 mL min^−1 of flow rate at 25 °C. Gradient conditions were as follows: t = 0‐1 min, 3% solvent B; t = 2‐7 min, 3‐95% solvent B; t = 7‐8 min, 95% solvent B; t = 8–9 min, 95‐3% solvent B; t = 9–10 min, 3% solvent B.

Assay [16] concerns S. aureus USA300. Description: Membrane component feeding assay. Type of assay: cell-based. Conditions: for inhibition of antibacterial activity by MK, UQ or PC: feeding 2 to 128 µg mL^−1, S. aureus USA300 (PC also E. coli DH5α), Figure S125. As for the experimental part:
The effects of bacterial membrane components on aquicidine L's or aquicidine C4's anti‐bacterial activities were evaluated using E. coli DH5α or S. aureus USA300. […] All experiments were done in triplicate (n = 3) and repeated two independent times (n = 2).

In general, Kd refers to the concentration at which binding is half-saturated. High values mean lower affinity, low ones higher affinity.

≈ marks a conversion by molar mass, not a printed value. Bridge positions count the residues as written; N and C are the ends. Square brackets hold non-standard residues; d marks the D form. Peptide text beside a SMILES is read from it. * marks the point of attachment. Myristoyl = CCCCCCCCCCCCCC(=O)*; Orn = NCCC[C@H](N)C(=O)O; Dab = NCC[C@H](N)C(=O)O; Dap = NC[C@H](N)C(=O)O

Turning to `CCCCCCCCCCCCCC(=O)N[C@@H](CN)C(=O)N[C@H](C(=O)N[C@@H](CC(C)C)C(=O)N[C@H]1COC(=O)[C@H](Cc2ccccc2)NC(=O)[C@H](CC(N)=O)NC(=O)[C@H](CCCN)NC(=O)[C@H]([C@@H](C)CC)NC(=O)[C@H](Cc2ccccc2)NC(=O)[C@H](CN)NC(=O)[C@H](CCN)NC1=O)[C@@H](C)O` [synAQU5-C4] (Myristoyl-[Dap]TLS[Dab][Dap]FI[Orn]NF; ester 4-C), the “MIC Bacllussubtilis ATCC 23857” value against B. subtilis ATCC 23857 was 2 µg/mL (≈ 1.41 µM). Further, the “MIC Escherichia coli DH5α” value with Escherichia coli DH5α came out at 8 µg/mL (≈ 5.63 µM). In addition, the “MIC Acinetobacter baumannii ATCC 17978” value in [1] was determined as 32 µg/mL (≈ 22.5 µM). Further, in the assay with Enterococcus faecalis 28, the “MIC Enterococcus faecalis 28” value was found to be 4 µg/mL (≈ 2.82 µM). The “MIC Enterococcus faecium 35682” value in assay [2] was found to be 4 µg/mL (≈ 2.82 µM). Besides, the “MIC Klebsiella pneumoniae NCTC 5056” value in assay [3] was more than 64 µg/mL. In addition, in [4], the “MIC Pseudomonas aeruginosa ATCC 9027” value was 16 µg/mL (≈ 11.3 µM). Further, in [5] (PAO1, 16 h), the “MIC Pseudomonas aeruginosa PAO1” value came to 32 µg/mL (≈ 22.5 µM). In addition, in [6], the “MIC Salmonella typhimurium LXX” value is 32 µg/mL (≈ 22.5 µM). In addition, the “MIC Staphylococcus aureus ATCC 25923” value in assay [7] came out at 4 µg/mL (≈ 2.82 µM). Moreover, in [8], the “MIC Staphylococcus aureus ATCC 6538” value was found to be 4 µg/mL (≈ 2.82 µM). Also, the “MIC Staphylococcus aureus Newman” value in assay [9] amounted to 4 µg/mL (≈ 2.82 µM). The “antibacterial activity (MIC) S. aureus USA300” value in [10] (Figure S127b, wild type) worked out at 4 µg/mL. Also, in assay [10], the “MIC Staphylococcus aureus USA300” value was 4 µg/mL (≈ 2.82 µM). Besides, the “MIC Streptococcus mutans ATCC 25175” value in assay [11] turned out to be 4 µg/mL (≈ 2.82 µM). For the same molecule, in [12], the “MIC Streptococcus pyogenes ATCC 19615” value came out at 2 µg/mL (≈ 1.41 µM). Further, the “MIC Vibrio alginolyticus XSBZ14” value in [13] was found to be 32 µg/mL (≈ 22.5 µM). The molecule further came in with a Kd in [14] of 1.84 µM. Moreover, the “accumulation of UDP-MurNAc-pentapeptide” value in the assay on S. aureus USA300 [15] is recorded as “did not show an obvious accumulation”. Moreover, in the assay with S. aureus USA300 [16] (feeding 2 to 128 µg mL^−1, S. aureus USA300, Figure 5d), the “inhibition of antibacterial activity by CL and PG” value was “stronger dose‐dependent inhibition”. Further, in the assay on S. aureus USA300 [16], the “inhibition of antibacterial activity by MK, UQ or PC” value is “did not show dose‐dependent inhibition”.
Consider `CCCCCCCCCCCCCC(=O)N[C@@H](CN)C(=O)N[C@H](C(=O)N[C@@H](CC(C)C)C(=O)N[C@@H](CO)C(=O)N[C@@H](CCN)C(=O)N[C@@H](CN)C(=O)N[C@@H](Cc1ccccc1)C(=O)N[C@H](C(=O)N[C@@H](CCCN)C(=O)N[C@@H](CC(N)=O)C(=O)N[C@@H](Cc1ccccc1)C(=O)O)[C@@H](C)CC)[C@@H](C)O` [synAQU5-L] (Myristoyl-[Dap]TLS[Dab][Dap]FI[Orn]NF-OH), for which the “MIC Bacllussubtilis ATCC 23857” value in the assay on B. subtilis ATCC 23857 amounted to 8 µg/mL (≈ 5.56 µM). The “MIC Escherichia coli DH5α” value in the assay on Escherichia coli DH5α was found to be 2 µg/mL (≈ 1.39 µM). Further, the “MIC Acinetobacter baumannii ATCC 17978” value in assay [1] worked out at 4 µg/mL (≈ 2.78 µM). Besides, the “MIC Enterococcus faecalis 28” value in the assay on Enterococcus faecalis 28 was determined as 16 µg/mL (≈ 11.1 µM). Moreover, in assay [2], the “MIC Enterococcus faecium 35682” value is 16 µg/mL (≈ 11.1 µM). Also, the “MIC Klebsiella pneumoniae NCTC 5056” value in assay [3] was determined as 8 µg/mL (≈ 5.56 µM). Also, the “MIC Pseudomonas aeruginosa ATCC 9027” value in assay [4] was determined as 4 µg/mL (≈ 2.78 µM). For the same molecule, the “MIC Pseudomonas aeruginosa PAO1” value in assay [5] (Table S11, LB broth, 37 °C, 16 h, n = 2) stood at 4 µg/mL (≈ 2.78 µM). Moreover, the “MIC Salmonella typhimurium LXX” value in assay [6] is 8 µg/mL (≈ 5.56 µM). The “MIC Staphylococcus aureus ATCC 25923” value in assay [7] was 32 µg/mL (≈ 22.3 µM). Besides, the “MIC Staphylococcus aureus ATCC 6538” value in [8] was 16 µg/mL (≈ 11.1 µM). Moreover, the “MIC Staphylococcus aureus Newman” value in assay [9] is 32 µg/mL (≈ 22.3 µM). Further, in [10], the “MIC Staphylococcus aureus USA300” value came to 16 µg/mL (≈ 11.1 µM). The “MIC Streptococcus mutans ATCC 25175” value in assay [11] was determined as 16 µg/mL (≈ 11.1 µM). In addition, the “MIC Streptococcus pyogenes ATCC 19615” value in assay [12] is 8 µg/mL (≈ 5.56 µM). Also, the “MIC Vibrio alginolyticus XSBZ14” value in [13] is 8 µg/mL (≈ 5.56 µM). Moreover, in assay [14], binding was characterised by a dissociation constant (Kd) of 0.29 µM. The “accumulation of UDP-MurNAc-pentapeptide” value in the assay on S. aureus USA300 [15] was “did not show an obvious accumulation”. Besides, in the assay on S. aureus USA300 [16], the “inhibition of antibacterial activity by MK, UQ or PC” value is “did not show dose‐dependent inhibition”.

These data come from publication PMC12677607, “Identification of a Pair of Linear or Cyclic Naturally Inspired Bifunctional Lipopeptide Antibiotics That Overcome Antimicrobial Resistance” (Advanced Science, 2025).
